{
  "source": "patent US12037340B2",
  "about": "“Pentacyclic derivatives as Zika virus inhibitors” (Gilead Sciences, Inc., priority 2021, dated 2024)",
  "data": [
    {"test_system": "ZIKV", "experiment": "microbe, parasite or virus in culture", "format": "cell-based, Zika virus", "settings": "48 hrs", "units": {"EC50": "nM"}, "values": [
      {"smiles": "COC[C@H]1C[C@@H](c2nc(Cl)c(-c3ccc4c(c3)COc3cc5c(ccc6nc([C@@H]7CC[C@H](C)N7C(=O)[C@@H](NC(=O)OC)C(C)C)[nH]c65)cc3-4)[nH]2)N(C(=O)[C@@H](NC(=O)OC)C(C)(C)C(F)(F)F)C1", "note": "[Compound 20, methyl ((S)-1-((2S,5S)-2-(9-(4-chloro-2-((2S,4S)-4-(methoxymethyl)-1-((S)-4,4,4-trilluoro-2-((methoxycarbonyl)amino)-3,3-dimethylbutanoyl)pyrrolidin-2-yl)-1H-imidazol-5-yl)-1,11-dihydroisochromeno[4′,3′:6,7]naphtho[1,2-d]imidazol-2-yl)-5-methylpyrrolidin-1-yl)-3-methyl-1-oxobutan-2-yl)carbamate]", "EC50": 5.4},
      {"smiles": "COC(=O)N[C@H](C(=O)N1CCC[C@H]1c1nc(Cl)c(-c2ccc3c(c2)COc2cc4c(ccc5nc([C@@H]6CCCN6C(=O)[C@@H](NC(=O)OC)C(C)(C)C(F)(F)F)[nH]c54)cc2-3)[nH]1)C(C)(C)C(F)(F)F", "note": "[Compound 29, methyl ((S)-1-((S)-2-(4-chloro-5-(2-((S)-1-((S)-4,4,4-trifluoro-2-((methoxycarbonyl)amino)-3,3-dimethylbutanoyl)pyrrolidin-2-yl)-1,11-dihydroisochromeno[4′,3′:6,7]naphtho[1,2-d]imidazol-9-yl)-1H-imidazol-2-yl)pyrrolidin-l-yl)-4,4,4-trifluoro-3,3-dimethyl-1-oxobutan-2-yl)carbamate]", "EC50": 11.4}
    ]},
    {"test_system": "ZIKV", "experiment": "microbe, parasite or virus in culture", "format": "cell-based, Zika virus", "settings": "Zika virus, Huh-7; 48 hrs", "units": {"EC50": "nM"}, "values": [
      {"smiles": "COC(=O)N[C@H](C(=O)N1[C@@H](C)CC[C@H]1c1nc(Br)c(-c2ccc3c(c2)COc2cc4c(ccc5nc([C@@H]6CC[C@H](C)N6C(=O)[C@@H](NC(=O)OC)C(C)C)[nH]c54)cc2-3)[nH]1)C(C)C", "note": "[Compound 31, methyl ((S)-1-((2S,5S)-2-(4-bromo-5-(2-((2S,5S)-1-((methoxycarbonyl)-L-valyl)-5-methylpyrrolidin-2-yl)-1,11-dihydroisochromeno[4′,3′:6,7]naphtho[1,2-d]imidazol-9-yl)-1H-imidazol-2-yl)-5-methylpyrrolidin-1-yl)-3-methyl-1-oxobutan-2-yl)carbamate]", "EC50": 8.5},
      {"smiles": "COC[C@H]1C[C@@H](c2nc(Cl)c(-c3ccc4c(c3)COc3cc5c(ccc6nc([C@@H]7CC[C@H](C)N7C(=O)[C@@H](NC(=O)OC)C(C)C)[nH]c65)cc3-4)[nH]2)N(C(=O)[C@@H](NC(=O)OC)C2CCOCC2)C1", "note": "[Compound 6, methyl ((S)-1-((2S,5S)-2-(9-(4-chloro-2-((2S,4S)-1-((S)-2-((methoxycarbonyl)amino)-2-(tetrahydro-2H-pyran-4-yl)acetyl)-4-(methoxymethyl)pyrrolidin-2-yl)-1H-imidazol-5-yl)-1,11-dihydroisochromeno[4′,3′:6,7]naphtho[1,2-d]imidazol-2-yl)-5-methylpyrrolidin-1-yl)-3-methyl-1-oxobutan-2-yl)carbamate]", "EC50": 133},
      {"smiles": "COC(=O)N[C@H](C(=O)N1[C@@H](C)CC[C@H]1c1nc(C(C)C)c(-c2ccc3c(c2)COc2cc4c(ccc5nc([C@@H]6CC[C@H](C)N6C(=O)[C@@H](NC(=O)OC)C(C)(C)C(F)(F)F)[nH]c54)cc2-3)[nH]1)C(C)(C)C(F)(F)F", "note": "[Compound 45, methyl ((S)-4,4,4-trifluoro-1-((2S,5S)-2-(4-isopropyl-5-(2-((2S,5S)-5-methyl-1-((S)-4,4,4-trifluoro-2-((methoxycarbonyl)amino)-3,3-dimethylbutanoyl)pyrrolidin-2-yl)-1,11-dihydroisochromeno[4′,3′:6,7]naphtho[1,2-d]imidazol-9-yl)-1H-imidazol-2-yl)-5-methylpyrrolidin-1-yl)-3,3-dimethyl-1-oxobutan-2-yl)carbamate]", "EC50": 4.9},
      {"smiles": "CC[C@H]1CC[C@@H](c2nc3ccc4cc5c(cc4c3[nH]2)OCc2cc(-c3[nH]c([C@@H]4CC[C@H](C)N4C(=O)[C@@H](NC(=O)OC)C(C)C)nc3Cl)ccc2-5)N1C(=O)[C@@H](NC(=O)OC)C1CCOCC1", "note": "[Compound 12, methyl ((S)-2-((2S,5S)-2-(9-(4-chloro-2-((2S,5S)-1-((methoxycarbonyl)-L-valyl)-5-methylpyrrolidin-2-yl)-1H-imidazol-5-yl)-1,11-dihydroisochromeno[4′,3′:6,7]naphtho[1,2-d]imidazol-2-yl)-5-ethylpyrrolidin-1-yl)-2-oxo-1-(tetrahydro-2H-pyran-4-yl)ethyl)carbamate]", "EC50": 12.1},
      {"smiles": "CC[C@H](C)[C@H](NC(=O)OC)C(=O)N1C[C@@H](COC)C[C@H]1c1nc(Cl)c(-c2ccc3c(c2)COc2cc4c(ccc5nc([C@@H]6CC[C@H](C)N6C(=O)[C@@H](NC(=O)OC)C(C)C)[nH]c54)cc2-3)[nH]1", "note": "[Compound 14, methyl ((S)-1-((2S,5S)-2-(9-(4-chloro-2-((2S,4S)-1-((methoxycarbonyl)-L-isoleucyl)-4-(methoxymethyl)pyrrolidin-2-yl)-1H-imidazol-5-yl)-1,11-dihydroisochromeno[4′,3′:6,7]naphtho[1,2-d]imidazol-2-yl)-5-methylpyrrolidin-1-yl)-3-methyl-1-oxobutan-2-yl)carbamate]", "EC50": 9.7},
      {"smiles": "CC[C@@H](C)[C@H](NC(=O)OC)C(=O)N1CCC[C@H]1c1nc(Cl)c(-c2ccc3c(c2)COc2cc4c(ccc5nc([C@@H]6CCCN6C(=O)[C@@H](NC(=O)OC)[C@H](C)CC)[nH]c54)cc2-3)[nH]1", "note": "[Compound 28, methyl ((2S,3R)-1-((S)-2-(4-chloro-5-(2-((S)-1-((methoxycarbonyl)-L-alloisoleucyl)pyrrolidin-2-yl)-1,11-dihydroisochromeno[4′,3′:6,7]naphtho[1,2-d]imidazol-9-yl)-1H-imidazol-2-yl)pyrrolidin-1-yl)-3-methyl-1-oxopentan-2-yl)carbamate]", "EC50": 31.5},
      {"smiles": "COC(=O)N[C@H](C(=O)N1CCC[C@H]1c1nc(Cl)c(-c2ccc3c(c2)COc2cc4c(ccc5nc([C@@H]6CCCN6C(=O)[C@@H](NC(=O)OC)C(C)C)[nH]c54)cc2-3)[nH]1)C(C)C", "note": "[Compound 26, methyl ((S)-1-((S)-2-(4-chloro-5-(2-((S)-1-((methoxycarbonyl)-L-valyl)pyrrolidin-2-yl)-1,11-dihydroisochromeno[4′,3′:6,7]naphtho[1,2-d]imidazol-9-yl)-1H-imidazol-2-yl)pyrrolidin-1-yl)-3-methyl-1-oxobutan-2-yl)carbamate]", "EC50": 85.4},
      {"smiles": "COC(=O)N[C@H](C(=O)N1[C@@H](C)CC[C@H]1c1nc(C2CC2)c(-c2ccc3c(c2)COc2cc4c(ccc5nc([C@@H]6CC[C@H](C)N6C(=O)[C@@H](NC(=O)OC)C(C)C)[nH]c54)cc2-3)[nH]1)C(C)C", "note": "[Compound 38, methyl ((S)-1-((2S,5S)-2-(4-cyclopropyl-5-(2-((2S,5S)-1-((methoxycarbonyl)-L-valyl)-5-methylpyrrolidin-2-yl)-1,11-dihydroisochromeno[4′,3′:6,7]naphtho[1,2-d]imidazol-9-yl)-1H-imidazol-2-yl)-5-methylpyrrolidin-1-yl)-3-methyl-1-oxobutan-2-yl)carbamate]", "EC50": 25.9},
      {"smiles": "CC[C@H](C)[C@H](NC(=O)OC)C(=O)N1[C@@H](C)CC[C@H]1c1nc(Cl)c(-c2ccc3c(c2)COc2cc4c(ccc5nc([C@@H]6CC[C@H](C)N6C(=O)[C@@H](NC(=O)OC)[C@@H](C)CC)[nH]c54)cc2-3)[nH]1", "note": "[Compound 22, methyl ((2S,3S)-1-((2S,5S)-2-(4-chloro-5-(2-((2S,5S)-1-((methoxycarbonyl)-L-isoleucyl)-5-methylpyrrolidin-2-yl)-1,11-dihydroisochromeno[4′,3′:6,7]naphtho[1,2-d]imidazol-9-yl)-1H-imidazol-2-yl)-5-methylpyrrolidin-1-yl)-3-methyl-1-oxopentan-2-yl)carbamate]", "EC50": 10.8},
      {"smiles": "CC[C@H](C)[C@H](NC(=O)OC)C(=O)N1C[C@@H](COC)C[C@H]1c1nc(C#N)c(-c2ccc3c(c2)COc2cc4c(ccc5nc([C@@H]6CC[C@H](C)N6C(=O)[C@@H](NC(=O)OC)C(C)C)[nH]c54)cc2-3)[nH]1", "note": "[Compound 16, methyl ((S)-1-((2S,5S)-2-(9-(4-cyano-2-((2S,4S)-1-((methoxycarbonyl)-L-isoleucyl)-4-(methoxymethyl)pyrrolidin-2-yl)-1H-imidazol-5-yl)-1,11-dihydroisochromeno[4′,3′:6,7]naphtho[1,2-d]imidazol-2-yl)-5-methylpyrrolidin-1-yl)-3-methyl-1-oxobutan-2-yl)carbamate]", "EC50": 43.4},
      {"smiles": "COC(=O)N[C@H](C(=O)N1[C@@H](C)CC[C@H]1c1nc(F)c(-c2ccc3c(c2)COc2cc4c(ccc5nc([C@@H]6CC[C@H](C)N6C(=O)[C@@H](NC(=O)OC)C(C)C)[nH]c54)cc2-3)[nH]1)C(C)C", "note": "[Compound 33, methyl ((S)-1-((2S,5S)-2-(9-(4-fluoro-2-((2S,5S)-1-((methoxycarbonyl)-L-valyl)-5-methylpyrrolidin-2-yl)-1H-imidazol-5-yl)-1,11-dihydroisochromeno[4′,3′:6,7]naphtho[1,2-d]imidazol-2-yl)-5-methylpyrrolidin-1-yl)-3-methyl-1-oxobutan-2-yl)carbamate]", "EC50": 77.3},
      {"smiles": "COC(=O)N[C@H](C(=O)N1CCC[C@H]1c1nc(Cl)c(-c2ccc3c(c2)COc2cc4c(ccc5nc([C@@H]6CCCN6C(=O)[C@@H](NC(=O)OC)C(C)(C)C)[nH]c54)cc2-3)[nH]1)C(C)(C)C", "note": "[Compound 30, methyl ((S)-1-((S)-2-(4-chloro-5-(2-((S)-1-((S)-2-((methoxycarbonyl)amino)-3,3-dimethylbutanoyl)pyrrolidin-2-yl)-1,11-dihydroisochromeno[4′,3′:6,7]naphtho[1,2-d]imidazol-9-yl)-1H-imidazol-2-yl)pyrrolidin-1-yl)-3,3-dimethyl-1-oxobutan-2-yl)carbamate]", "EC50": 44.7},
      {"smiles": "COC(=O)N[C@H](C(=O)N1[C@@H](C)CC[C@H]1c1nc(Br)c(-c2ccc3c(c2)COc2cc4c(ccc5nc([C@@H]6CC[C@H](C)N6C(=O)[C@@H](NC(=O)OC)C6C[C@@H](C)O[C@H](C)C6)[nH]c54)cc2-3)[nH]1)C1CC(C)O[C@H](C)C1", "note": "(stereo in doubt) [Compound 10, methyl ((S)-2-((2S,5S)-2-(9-(4-bromo-2-((2S,5S)-1-((S)-2-((2R,6R)-2,6-dimethyltetrahydro-2H-pyran-4-yl)-2-((methoxycarbonyl)amino)acetyl)-5-methylpyrrolidin-2-yl)-1H-imidazol-5-yl)-1,11-dihydroisochromeno[4′,3′:6,7]naphtho[1,2-d]imidazol-2-yl)-5-methylpyrrolidin-1-yl)-1-((2R,6R)-2,6-dimethyltetrahydro-2H-pyran-4-yl)-2-oxoethyl)carbamate]", "EC50": 18.8}
    ]}
  ]
}
